Source: US10689354B2, “Aminoazole derivative” (Teijin Pharma Limited, priority 2015, dated 2020)

These compounds were tested against T1, androgen receptor (AR-LBD) (Rattus norvegicus, UniProt P15207) (assay: Evaluation of androgen receptor affinity (PolarScreen Androgen Receptor Competitor Assay Kit, Red; fluorescence polarization)). Conditions: 22° C. for 5 hours, relative to binding rate of 1 μM DHT, read-out: AR affinity (pEC50) (converted).
T1 construct: 5 μL of 2×AR-LBD/Fluoromone AL Red Complex contained in the kit; purchased Invitrogen
T1 sequence (P15207 651-882 limits assumed): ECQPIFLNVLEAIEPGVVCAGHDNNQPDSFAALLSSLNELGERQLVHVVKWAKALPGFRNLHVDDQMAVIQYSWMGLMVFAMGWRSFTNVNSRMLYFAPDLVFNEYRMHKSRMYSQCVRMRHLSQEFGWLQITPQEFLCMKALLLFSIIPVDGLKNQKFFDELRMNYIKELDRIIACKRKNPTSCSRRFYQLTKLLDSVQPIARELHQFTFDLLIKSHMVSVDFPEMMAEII
Procedure: Evaluation of an Androgen Receptor Affinity
To examine the interaction of a compound with an androgen receptor, evaluation was carried out in accordance with the following procedure using PolarScreen™ Androgen Receptor Competitor Assay Kit, Red (Invitrogen). To 2 wells each of a 384 well black plate was added 5 μL of the compound solution. To each well was added 5 μL of 2×AR-LBD/Fluoromone AL Red Complex contained in the kit and the samples were reacted at 22° C. for 5 hours. After 5 hours of the reaction, fluorescence polarization was measured and the affinity was evaluated. The affinity of the compound was determined by comparing to the binding rate of 1 μM of dihydrotestosterone (DHT), and quantified the logarithm value (pEC50) of reciprocal value of the effective concentration of the compound which is equal to 50% of the binding rate by applying a 4 parameter goodness-of-fit calculation.

Question: Which EC50 does the source give for `Cc1sc(N(Cc2ccc(OCC(=O)N3CCOCC3)cc2)c2ccc(C#N)cc2)nc1C(=O)NS(C)(=O)=O` [Compound 573, 2-[4-cyano-N-[[4-(2-morpholino-2-oxo-ethoxy)phenyl]methyl]anilino]-5-methyl-N-methylsulfonyl-thiazole-4-carboxamide] here?
Answer: 1.26 µM

Question: Which EC50 does the source give for `Cc1sc(N(Cc2cccnc2)c2ccc(C#N)cc2)nc1C(=O)NS(C)(=O)=O` [Compound 43, 2-[4-cyano-N-(3-pyridylmethyl)anilino]-5-methyl-N-methylsulfonyl-thiazole-4-carboxamide] here?
Answer: > 2 µM

Question: Which EC50 does the source give for `COc1ccc(N(Cc2ccccc2)c2nc(C(=O)NS(C)(=O)=O)c(C)s2)cc1` [Compound 21, 2-(N-benzyl-4-methoxy-anilino)-5-methyl-N-methylsulfonyl-thiazole-4-carboxamide] here?
Answer: 1.58 µM

Question: How did the EC50 turn out when `Cc1nc(CN(c2ccc(C#N)cc2)c2nc(C(=O)NS(C)(=O)=O)c(Cl)s2)cs1` [Example 278, 5-chloro-2-[4-cyano-N-[(2-methylthiazol-4-yl)methyl]anilino]-N-methylsulfonyl-thiazole-4-carboxamide] was run?
Answer: 0.794 µM

Question: How did the EC50 turn out when `Cc1sc(N(Cc2ccccc2)c2cccc(C#N)c2)nc1C(=O)NS(C)(=O)=O` [Example 225, 2-(N-benzyl-3-cyano-anilino)-5-methyl-N-methylsulfonyl-thiazole-4-carboxamide] was run?
Answer: > 2 µM

Question: How did the EC50 turn out when `Cc1ncsc1CCN(c1ccc(C#N)cc1)c1nc(C(=O)NS(C)(=O)=O)c(C)s1` [Compound 136, 2-[4-cyano-N-[2-(4-methylthiazol-5-yl)ethyl]anilino]-5-methyl-N-methylsulfonyl-thiazole-4-carboxamide] was run?
Answer: > 2 µM

Question: How did the EC50 turn out when `Cc1sc(N(Cc2ccccc2)C2CCCCC2)nc1C(=O)NS(C)(=O)=O` [Compound 670, 2-[benzyl(cyclohexyl)amino]-5-methyl-N-methylsulfonyl-thiazole-4-carboxamide] was run?
Answer: > 2 µM

Question: With `Cc1sc(N(Cc2ccccn2)c2ccc(C#N)cc2)nc1C(=O)NS(C)(=O)=O` [Compound 42, 2-[4-cyano-N-(2-pyridylmethyl)anilino]-5-methyl-N-methylsulfonyl-thiazole-4-carboxamide] as the compound, how does the EC50 read?
Answer: > 2 µM

Question: With `CS(=O)(=O)NC(=O)c1nc(N(Cc2ccccc2)c2ccc(C#N)cc2)sc1-c1ccccc1` [Compound 601, 2-(N-benzyl-4-cyano-anilino)-N-methylsulfonyl-5-phenyl-thiazole-4-carboxamide] as the compound, how does the EC50 read?
Answer: > 2 µM

Question: Which EC50 does the source give for `Cc1sc(N(Cc2ccc(OCCCN3CCCC3=O)cc2)c2ccc(C#N)cc2)nc1C(=O)NS(C)(=O)=O` [Compound 578, 2-[4-cyano-N-[[4-[3-(2-oxopyrrolidin-1-yl)propoxy]phenyl]methyl]anilino]-5-methyl-N-methylsulfonyl-thiazole-4-carboxamide] here?
Answer: 0.794 µM

Question: `COCC(CN(c1ccc(C#N)cc1)c1nc(C(=O)NS(C)(=O)=O)c(C)s1)c1ccccc1` (stereo not drawn) [Compound 377, 2-(4-cyano-N-(3-methoxy-2-phenyl-propyl)anilino)-5-methyl-N-methylsulfonyl-thiazole-4-carboxamide] was tested. Which EC50 did it give?
Answer: > 2 µM

Question: How did the EC50 turn out when `Cc1sc(N(Cc2ccncc2)c2ccc(C#N)cc2)nc1C(=O)NS(C)(=O)=O` [Compound 44, 2-[4-cyano-N-(4-pyridylmethyl)anilino]-5-methyl-N-methylsulfonyl-thiazole-4-carboxamide] was run?
Answer: > 2 µM

Question: With `COCCOc1ccc(N(Cc2ccccc2)c2nc(C(=O)NS(C)(=O)=O)c(C)s2)cc1` [Compound 22, 2-[N-benzyl-4-(2-methoxyethoxy)anilino]-5-methyl-N-methylsulfonyl-thiazole-4-carboxamide] as the compound, how does the EC50 read?
Answer: 0.501 µM

Question: `Cc1sc(N(CCC2CC2)Cc2ccccc2)nc1C(=O)NS(C)(=O)=O` [Compound 687, 2-[benzyl(2-cyclopropylethyl)amino]-5-methyl-N-methylsulfonyl-thiazole-4-carboxamide] was tested. Which EC50 did it give?
Answer: > 2 µM

Question: Which EC50 does the source give for `Cc1sc(N(Cc2ccccc2)C(C)Cc2ccccc2)nc1C(=O)NS(C)(=O)=O` (stereo not drawn) [Compound 674, 2-[benzyl-(1-methyl-2-phenyl-ethyl)amino]-5-methyl-N-methylsulfonyl-thiazole-4-carboxamide] here?
Answer: > 2 µM

Question: With `Cc1sc(N(CCc2ccc(C#N)cc2)CC2CCCCC2)nc1C(=O)NS(=O)(=O)C1CC1` [Compound 718, 2-[2-(4-cyanophenyl)ethyl-(cyclohexylmethyl)amino]-N-cyclopropylsulfonyl-5-methyl-thiazole-4-carboxamide] as the compound, how does the EC50 read?
Answer: > 2 µM

Question: Which EC50 does the source give for `Cc1sc(N(C[C@@H]2CCCC[C@H]2O)c2ccc(C#N)cc2)nc1C(=O)NS(C)(=O)=O` (racemic) [Compound 411, 2-[4-cyano-N-[[trans-2-hydroxycyclohexyl]methyl]anilino]-5-methyl-N-methylsulfonyl-thiazole-4-carboxamide] here?
Answer: 0.794 µM

Question: How did the EC50 turn out when `Cc1sc(N(Cc2ccccc2)Cc2ccccc2C#N)nc1C(=O)NS(C)(=O)=O` [Example 291, 2-[benzyl-[(2-cyanophenyl)methyl]amino]-5-methyl-N-methylsulfonyl-thiazole-4-carboxamide] was run?
Answer: > 2 µM

Question: With `COc1ccc(CCN(Cc2ccccc2)c2nc(C(=O)NS(C)(=O)=O)c(C)s2)cc1OC` [Example 307, 2-[benzyl-[2-(3,4-dimethoxyphenyl)ethyl]amino]-5-methyl-N-methylsulfonyl-thiazole-4-carboxamide] as the compound, how does the EC50 read?
Answer: > 2 µM

Question: `Cc1sc(N(CCc2cccc(S(C)(=O)=O)c2)Cc2ccccc2)nc1C(=O)NS(C)(=O)=O` [Compound 331, 2-[benzyl-[2-(3-methylsulfonylphenyl)ethyl]amino]-5-methyl-N-methylsulfonyl-thiazole-4-carboxamide] was tested. Which EC50 did it give?
Answer: > 2 µM

Question: `Cc1sc(N(Cc2ccccc2C(F)F)c2ccc(C#N)cc2)nc1C(=O)NS(C)(=O)=O` [Compound 93, 2-[4-cyano-N-[[2-(difluoromethyl)phenyl]methyl]anilino]-5-methyl-N-methylsulfonyl-thiazole-4-carboxamide] was tested. Which EC50 did it give?
Answer: 0.631 µM

Question: For `Cc1sc(N(Cc2ccccc2)Cc2csc3cc(C#N)ccc23)nc1C(=O)NS(C)(=O)=O` [Compound 675, 2-[benzyl-[(6-cyanobenzothiophen-3-yl)methyl]amino]-5-methyl-N-methylsulfonyl-thiazole-4-carboxamide], which EC50 is on record?
Answer: > 2 µM

Question: `Cc1sc(N(CC[C@H]2C[C@H](O)CO2)c2ccc(C#N)cc2)nc1C(=O)NS(C)(=O)=O` (racemic) [Compound 457, 2-[4-cyano-N-[2-[trans-4-hydroxytetrahydrofuran-2-yl]ethyl]anilino]-5-methyl-N-methylsulfonyl-thiazole-4-carboxamide] was tested. Which EC50 did it give?
Answer: > 2 µM

Question: `Cc1sc(N(CC(=O)NC2CC2)c2ccc(C#N)cc2)nc1C(=O)NS(C)(=O)=O` [Compound 412, 2-(4-cyano-N-[2-(cyclopropylamino)-2-oxo-ethyl]anilino)-5-methyl-N-methylsulfonyl-thiazole-4-carboxamide] was tested. Which EC50 did it give?
Answer: > 2 µM

Question: Which EC50 does the source give for `Cc1sc(N(Cc2ccccc2)c2ccccc2)nc1C(=O)NS(C)(=O)=O` [Compound 428, 2-(N-benzylanilino)-5-methyl-N-methylsulfonyl-thiazole-4-carboxamide] here?
Answer: > 2 µM

Question: With `Cc1sc(N(Cc2ccc(OCCN3CCOCC3)cc2)c2ccc(C#N)cc2)nc1C(=O)NS(C)(=O)=O` [Compound 572, 2-[4-cyano-N-[[4-(2-morpholinoethoxy)phenyl]methyl]anilino]-5-methyl-N-methylsulfonyl-thiazole-4-carboxamide] as the compound, how does the EC50 read?
Answer: 1.58 µM

Question: `Cc1sc(N(CCc2c[nH]c3ccccc23)Cc2ccccc2)nc1C(=O)NS(C)(=O)=O` [Compound 320, 2-[benzyl-[2-(1H-indol-3-yl)ethyl]amino]-5-methyl-N-methylsulfonyl-thiazole-4-carboxamide] was tested. Which EC50 did it give?
Answer: 0.631 µM

Question: For `Cc1sc(N(CC(=O)c2ccccc2)c2ccc(C#N)cc2)nc1C(=O)NS(C)(=O)=O` [Compound 434, 2-(4-cyano-N-phenacyl-anilino)-5-methyl-N-methylsulfonyl-thiazole-4-carboxamide], which EC50 is on record?
Answer: > 2 µM

Question: With `Cc1sc(N(c2ccc(C#N)cc2)[C@@H](CO)c2ccccc2)nc1C(=O)NS(C)(=O)=O` [Compound 483, 2-(4-cyano-N-[(1R)-2-hydroxy-1-phenyl-ethyl]anilino)-5-methyl-N-methylsulfonyl-thiazole-4-carboxamide] as the compound, how does the EC50 read?
Answer: > 2 µM

Question: How did the EC50 turn out when `Cc1sc(N(Cc2ccc(OCC(=O)N(C)C)cc2)c2ccc(C#N)cc2)nc1C(=O)NS(C)(=O)=O` [Compound 570, 2-[4-cyano-N-[[4-[2-(dimethylamino)-2-oxo-ethoxy]phenyl]methyl]anilino]-5-methyl-N-methylsulfonyl-thiazole-4-carboxamide] was run?
Answer: 1.26 µM

Question: For `Cc1sc(N(CC2CCCC(O)C2)c2ccc(C#N)cc2)nc1C(=O)NS(C)(=O)=O` (stereo not drawn) [Compound 427, 2-[4-cyano-N-[(3-hydroxycyclohexyl)methyl]anilino]-5-methyl-N-methylsulfonyl-thiazole-4-carboxamide], which EC50 is on record?
Answer: > 2 µM

Question: For `Cc1oc(N(Cc2ccc(C#N)cc2)c2ccc(C#N)cc2)nc1C(=O)NS(C)(=O)=O` [Compound 615, 2-[4-cyano-N-[(4-cyanophenyl)methyl]anilino]-5-methyl-N-methylsulfonyl-oxazole-4-carboxamide], which EC50 is on record?
Answer: 0.398 µM

Question: With `Cc1cccc(CN(c2ccc(C#N)cc2)c2nc(C(=O)NS(C)(=O)=O)c(Br)s2)c1` [Example 245, 5-bromo-2-[4-cyano-N-(m-tolylmethyl)anilino]-N-methylsulfonyl-thiazole-4-carboxamide] as the compound, how does the EC50 read?
Answer: 0.0794 µM
